In ChEMBL document CHEMBL1201862, “PubChem BioAssay data set” (2004):
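In this assay, cells in 96-well plates receive the compound at five concentrations for 48 hours. Endpoints are linearly interpolated between the surrounding concentrations. GI50: concentration for 50% inhibition of growth.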 Activity calls are given as the source filed them. No stated cut-off is given here; in the data, active = GI50 up to about 1.1 µM and inactive = higher. Residues, ends and D or L forms follow the SMILES beside them.

Assays:
Assay in all cases: growth of human tumour cells (NCI), 48 h
A498 = tested on: A498
BT-549 = tested on: BT-549
COLO 205 = tested on: COLO 205
Hs-578T = tested on: Hs-578T
IGROV-1 = tested on: IGROV-1
MCF7 = tested on: MCF7
MDA-N = tested on: MDA-N
Malme-3M = tested on: Malme-3M
NCI-H226 = tested on: NCI-H226
NCI-H460 = tested on: NCI-H460
OVCAR-5 = tested on: OVCAR-5
RPMI-8226 = tested on: RPMI-8226
RXF 393 = tested on: RXF 393
SF-295 = tested on: SF-295
SK-MEL-2 = tested on: SK-MEL-2
SK-OV-3 = tested on: SK-OV-3
UACC-62 = tested on: UACC-62
UO-31 = tested on: UO-31
SR = tested on: SR

SMILES	GI50 (A498)	GI50 (BT-549)	GI50 (COLO 205)	GI50 (Hs-578T)	GI50 (IGROV-1)	GI50 (MCF7)	GI50 (MDA-N)	GI50 (Malme-3M)	GI50 (NCI-H226)	GI50 (NCI-H460)	GI50 (OVCAR-5)	GI50 (RPMI-8226)	GI50 (RXF 393)	GI50 (SF-295)	GI50 (SK-MEL-2)	GI50 (SK-OV-3)	GI50 (UACC-62)	GI50 (UO-31)	GI50 (SR)
C(=N/Nc1ccccn1)/c1cccnc1	> 100 µM (inactive)	> 100 µM (inactive)	> 100 µM (inactive)	> 100 µM (inactive)	> 100 µM (inactive)	43.9 µM (inactive)	> 100 µM (inactive)	66.4 µM (inactive)	> 100 µM (inactive)	> 100 µM (inactive)	> 100 µM (inactive)	> 100 µM (inactive)	> 100 µM (inactive)	> 100 µM (inactive)	> 100 µM (inactive)	> 100 µM (inactive)	94.6 µM (inactive)	> 100 µM (inactive)	–
CCn1c(-c2cc(OC)cc(OC)c2)nc2c1C(=O)c1ccccc1C2=O	–	> 100 µM (inactive)	> 100 µM (inactive)	36.5 µM (inactive)	> 100 µM (inactive)	> 100 µM (inactive)	> 100 µM (inactive)	> 100 µM (inactive)	> 100 µM (inactive)	> 100 µM (inactive)	> 100 µM (inactive)	> 100 µM (inactive)	13.9 µM (inactive)	29.2 µM (inactive)	–	3.9 µM (inactive)	20.6 µM (inactive)	–	> 100 µM (inactive)
O=C(Cn1c(-c2ccccc2)cc2ccccc21)N1CCCC1	–	> 100 µM (inactive)	> 100 µM (inactive)	> 100 µM (inactive)	> 100 µM (inactive)	> 100 µM (inactive)	> 100 µM (inactive)	> 100 µM (inactive)	> 100 µM (inactive)	> 100 µM (inactive)	> 100 µM (inactive)	–	–	> 100 µM (inactive)	> 100 µM (inactive)	> 100 µM (inactive)	> 100 µM (inactive)	> 100 µM (inactive)	> 100 µM (inactive)
CCOC(=O)C(C(=S)SC)c1nn2c(=O)cc(C)nc2s1 (configuration not stated)	–	16.9 µM (inactive)	24.6 µM (inactive)	22.1 µM (inactive)	19.6 µM (inactive)	17.1 µM (inactive)	15.8 µM (inactive)	16.4 µM (inactive)	17.9 µM (inactive)	18.8 µM (inactive)	20.8 µM (inactive)	19.6 µM (inactive)	20.8 µM (inactive)	20.3 µM (inactive)	20.8 µM (inactive)	22.9 µM (inactive)	20.4 µM (inactive)	23 µM (inactive)	15.7 µM (inactive)
COc1ccc(C(OCC2OC3(COC(c4ccccc4)(c4ccc(OC)cc4)c4ccc(OC)cc4)C(Oc4nc(=O)ccn43)C2O)(c2ccccc2)c2ccc(OC)cc2)cc1 (configuration not stated)	–	> 100 µM (inactive)	> 100 µM (inactive)	10.8 µM (inactive)	> 100 µM (inactive)	> 100 µM (inactive)	> 100 µM (inactive)	> 100 µM (inactive)	> 100 µM (inactive)	–	> 100 µM (inactive)	71.1 µM (inactive)	> 100 µM (inactive)	> 100 µM (inactive)	> 100 µM (inactive)	> 100 µM (inactive)	> 100 µM (inactive)	> 100 µM (inactive)	> 100 µM (inactive)
CN(C)CCCNc1nnc(NCCCN(C)C)c2c(=O)c3sccc3[nH]c12	41.4 µM (inactive)	32.1 µM (inactive)	2.82 µM (inactive)	23.2 µM (inactive)	5.69 µM (inactive)	5.64 µM (inactive)	3.4 µM (inactive)	15.5 µM (inactive)	8.95 µM (inactive)	3.51 µM (inactive)	16.6 µM (inactive)	9.02 µM (inactive)	15 µM (inactive)	13.7 µM (inactive)	18.4 µM (inactive)	12.9 µM (inactive)	14.2 µM (inactive)	2.75 µM (inactive)	–
Cc1nc2ccc(S(=O)(=O)Nc3ccccc3Cl)cc2c(=O)n1NC(=O)CNc1ccccc1Cl	–	> 100 µM (inactive)	> 100 µM (inactive)	> 100 µM (inactive)	> 100 µM (inactive)	> 100 µM (inactive)	> 100 µM (inactive)	> 100 µM (inactive)	> 100 µM (inactive)	> 100 µM (inactive)	> 100 µM (inactive)	> 100 µM (inactive)	–	> 100 µM (inactive)	> 100 µM (inactive)	> 100 µM (inactive)	> 100 µM (inactive)	> 100 µM (inactive)	> 100 µM (inactive)
Cc1ccc(S(=O)(=O)[N-]C2C(=O)c3ccccc3C(=O)C2[n+]2cccc(C(N)=O)c2)cc1 (configuration not stated)	–	> 100 µM (inactive)	24.8 µM (inactive)	> 100 µM (inactive)	> 100 µM (inactive)	> 100 µM (inactive)	34.8 µM (inactive)	–	> 100 µM (inactive)	> 100 µM (inactive)	> 100 µM (inactive)	> 100 µM (inactive)	> 100 µM (inactive)	> 100 µM (inactive)	> 100 µM (inactive)	> 100 µM (inactive)	> 100 µM (inactive)	> 100 µM (inactive)	> 100 µM (inactive)
O=C1CNNC(CSc2nc3ccc(I)cc3c(=O)n2Cc2ccccc2)=N1	27.8 µM (inactive)	27.5 µM (inactive)	14.1 µM (inactive)	32.9 µM (inactive)	18 µM (inactive)	28.4 µM (inactive)	27.5 µM (inactive)	23.9 µM (inactive)	18.1 µM (inactive)	30.9 µM (inactive)	41.2 µM (inactive)	22.6 µM (inactive)	–	20.4 µM (inactive)	16.4 µM (inactive)	33.3 µM (inactive)	15.8 µM (inactive)	1.24 µM (inactive)	17.9 µM (inactive)
O=c1oc2cc(O)ccc2c(O)c1C(c1ccccc1F)c1c(O)c2ccc(O)cc2oc1=O	> 100 µM (inactive)	11.3 µM (inactive)	> 100 µM (inactive)	68.9 µM (inactive)	> 100 µM (inactive)	45.2 µM (inactive)	61.2 µM (inactive)	–	> 100 µM (inactive)	> 100 µM (inactive)	> 100 µM (inactive)	29.6 µM (inactive)	39.7 µM (inactive)	> 100 µM (inactive)	45 µM (inactive)	> 100 µM (inactive)	36.6 µM (inactive)	> 100 µM (inactive)	34.7 µM (inactive)
COC(=O)C(Cc1ccccc1)NP(=O)(O)OCC1OC(n2ccc(N)nc2=O)C(O)C1O (configuration not stated)	> 100 µM (inactive)	> 100 µM (inactive)	> 100 µM (inactive)	> 100 µM (inactive)	> 100 µM (inactive)	> 100 µM (inactive)	> 100 µM (inactive)	> 100 µM (inactive)	> 100 µM (inactive)	> 100 µM (inactive)	> 100 µM (inactive)	> 100 µM (inactive)	–	> 100 µM (inactive)	> 100 µM (inactive)	> 100 µM (inactive)	> 100 µM (inactive)	> 100 µM (inactive)	66.1 µM (inactive)
COc1cc([C@@H]2c3cc4c(cc3[C@@H](Nc3ccc(Cl)cc3C(=O)c3ccccc3)[C@H]3COC(=O)[C@H]23)OCO4)cc(OC)c1OC	0.195 µM (active)	0.457 µM (active)	0.416 µM (active)	0.287 µM (active)	0.417 µM (active)	0.395 µM (active)	0.307 µM (active)	0.396 µM (active)	–	0.277 µM (active)	0.598 µM (active)	0.467 µM (active)	–	0.299 µM (active)	2.34 µM (inactive)	0.641 µM (active)	0.401 µM (active)	1.19 µM (inactive)	0.295 µM (active)
C=C(C)[C@@H]1CC[C@]2(C(=O)O)CC[C@]3(C)[C@H](CCC4[C@@]5(C)CC[C@H](C(=O)/C=C/c6ccc(O)c(O)c6)C(C)(C)[C@@H]5CC[C@]43C)[C@@H]12 (some centres not stated)	–	12 µM (inactive)	2.84 µM (inactive)	5.47 µM (inactive)	4.24 µM (inactive)	4.04 µM (inactive)	3.89 µM (inactive)	–	–	2.81 µM (inactive)	12.7 µM (inactive)	–	6 µM (inactive)	3.75 µM (inactive)	12.6 µM (inactive)	4.42 µM (inactive)	3.77 µM (inactive)	3.58 µM (inactive)	3.4 µM (inactive)
C=C1C(=O)OC2CC3(C)CCCC(C)C3=CC12 (configuration not stated)	3.72 µM (inactive)	4.65 µM (inactive)	1.3 µM (inactive)	2.91 µM (inactive)	10.1 µM (inactive)	1.78 µM (inactive)	3.18 µM (inactive)	3.9 µM (inactive)	13.2 µM (inactive)	3.03 µM (inactive)	11.2 µM (inactive)	–	–	13.1 µM (inactive)	10.4 µM (inactive)	20.7 µM (inactive)	4.08 µM (inactive)	3.18 µM (inactive)	2.14 µM (inactive)
CCC(C)C(NC(=O)C1CCCN1)C(=O)NC(C(=O)NCC(=O)NC(CC(N)=O)C(=O)NC(CC(C)C)C(=O)NC(CC(C)C)C(=O)NC(CCCCN)C(N)=O)C(C)C (configuration not stated) (H-PIVGNLLK-NH2; configuration not given here)	> 75 µM (inactive)	> 75 µM (inactive)	> 75 µM (inactive)	> 75 µM (inactive)	> 75 µM (inactive)	> 75 µM (inactive)	> 75 µM (inactive)	> 75 µM (inactive)	> 75 µM (inactive)	–	> 75 µM (inactive)	> 75 µM (inactive)	–	> 75 µM (inactive)	> 75 µM (inactive)	> 75 µM (inactive)	> 75 µM (inactive)	> 75 µM (inactive)	> 75 µM (inactive)
